ChEMBL document CHEMBL1201862, “PubChem BioAssay data set” (2004)
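Where inhibition never reached the appropriate level, the endpoint shown equals the highest concentration tested. Otherwise, values were interpolated linearly from a five-concentration, 48-hour dose response in 96-well plates. The concentration for 50% growth inhibition is given as GI50.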 Active and inactive are the calls of the source. No stated cut-off is given here; in the data, active = GI50 up to about 1.1 µM and inactive = higher.

Assays:
Experiment in all cases: NCI anticancer screen, dose series, 48 h
[1] = test system: XF498
[2] = test system: U-251
[3] = test system: HL-60
[4] = test system: KM-20L2
[5] = test system: TK-10
[6] = test system: HCT-15
[7] = test system: M14
[8] = test system: SF-295
[9] = test system: MOLT-4
[10] = test system: LOX IMVI
[11] = test system: M19-MEL
[12] = test system: OVCAR-4
[13] = test system: SK-OV-3
[14] = test system: A498
[15] = test system: HCT-116
[16] = test system: KM12
[17] = test system: SK-MEL-28
[18] = test system: OVCAR-8
[19] = test system: NCI-H460
[20] = test system: SN12C
[21] = test system: SR
[22] = test system: OVCAR-5
[23] = test system: A549
[24] = test system: SNB-75
[25] = test system: DLD-1
[26] = test system: SF-539
[27] = test system: SK-MEL-2
[28] = test system: DMS-114
[29] = test system: RXF 393
[30] = test system: SNB-78
[31] = test system: 786-0
[32] = test system: CCRF-CEM
[33] = test system: EKVX
[34] = test system: NCI-H23
[35] = test system: SW-620
[36] = test system: HOP-62
[37] = test system: NCI-H522
[38] = test system: RPMI-8226
[39] = test system: SNB-19
[40] = test system: COLO 205
[41] = test system: UO-31
[42] = test system: ACHN
[43] = test system: HOP-92
[44] = test system: HT-29
[45] = test system: K562
[46] = test system: IGROV-1
[47] = test system: UACC-62
[48] = test system: CAKI-1
[49] = test system: SK-MEL-5
[50] = test system: DMS-273
[51] = test system: SF-268
[52] = test system: UACC-257
[53] = test system: LXFL 529

CC(C)CCC[C@@H](C)[C@H]1CC[C@H]2[C@@H]3CC=C4CC(OCCCCN(O)CCCSC5OC(CO)C(O)C(O)C5O)CC[C@]4(C)[C@H]3CC[C@]12C (stereo partly drawn)
GI50 [1]: > 100 µM (inactive)
GI50 [2]: 30.2 µM (inactive)
GI50 [3]: 25.8 µM (inactive)
GI50 [4]: > 100 µM (inactive)
GI50 [5]: > 100 µM (inactive)
GI50 [6]: 43.4 µM
GI50 [7]: 25 µM (inactive)
GI50 [8]: > 100 µM (inactive)
GI50 [9]: 34 µM (inactive)
GI50 [10]: 21.8 µM (inactive)
GI50 [11]: > 100 µM (inactive)
GI50 [12]: > 100 µM (inactive)
GI50 [13]: > 100 µM (inactive)
GI50 [14]: > 100 µM (inactive)
GI50 [15]: 56.1 µM (inactive)
GI50 [16]: 33.5 µM (inactive)
GI50 [17]: > 100 µM (inactive)
GI50 [18]: 74.1 µM (inactive)
GI50 [19]: 39.9 µM (inactive)
GI50 [20]: > 100 µM (inactive)
GI50 [21]: 34.7 µM (inactive)
GI50 [22]: > 100 µM (inactive)
GI50 [23]: 42.2 µM (inactive)
GI50 [24]: 65.8 µM (inactive)
GI50 [25]: 56.4 µM (inactive)
GI50 [26]: 18.8 µM (inactive)
GI50 [27]: 17.4 µM (inactive)
GI50 [28]: 25.5 µM (inactive)
GI50 [29]: 79.3 µM (inactive)
GI50 [30]: 74.8 µM (inactive)
GI50 [31]: 18 µM (inactive)
GI50 [32]: 26.4 µM (inactive)
GI50 [33]: > 100 µM (inactive)
GI50 [34]: 45.2 µM (inactive)
GI50 [35]: 22.6 µM (inactive)
GI50 [36]: 94.2 µM (inactive)
GI50 [37]: 23.1 µM (inactive)
GI50 [38]: > 100 µM (inactive)
GI50 [39]: > 100 µM (inactive)
GI50 [40]: 25.6 µM (inactive)
GI50 [41]: > 100 µM (inactive)
GI50 [42]: > 100 µM (inactive)
GI50 [43]: > 100 µM (inactive)
GI50 [44]: 30.4 µM (inactive)
GI50 [45]: 36.3 µM (inactive)
GI50 [46]: 22.1 µM (inactive)
GI50 [47]: > 100 µM (inactive)
GI50 [48]: > 100 µM (inactive)
GI50 [49]: 70.5 µM (inactive)
GI50 [50]: 32 µM (inactive)
GI50 [51]: 52.7 µM (inactive)
GI50 [52]: > 100 µM (inactive)
GI50 [53]: 23 µM (inactive)
